From patent US20230405151A1, “USE OF IRAK4 MODULATORS FOR GENE THERAPY” (Genzyme Corporation, priority 2022, published 2023)

Key:
[1] = test system: phosphorylation of IRAK4 kinase target protein NFkB; assay: AlphaLISA SureFire Ultra p-NFκB (Ser536) assay after LPS; format: cell-based, human; settings: doses 16 nM, 80 nM, 400 nM and 2000 nM; LPS 300 ng/ml
Procedure: IRAK4 targeting drugs and AAV Treatments. Dendritic cells were plated in 96 well plates with 200,000 cells per well. Each treatment was performed in triplicates. Cells were treated with zimlovisertib IRAK4 inhibitor (Synonyms: PF-06650833) Cat. No.: HY-19836 (MedChemExpress) and PROTAC IRAK4 degrader-1 Cat. No.: HY-129966 (MedChemExpress) at 16 nm, 80 nm, 400 nm and 2000 nm for 18 hrs at 37° C., 5% CO2 in an incubator. After pre-treatment of 18 hrs with the drugs, AAV vectors at 1e5 MOI were used. The cells were incubated at 37° C., 5% CO2 in an incubator for 24 hours. After 24 hours, plates were centrifuged and media supernatant was collected. The clarified media was analyzed by Meso Scale Discovery MSD (world wide web mesoscale.com/products/v-plex-proinflammatory-panel-1-human-kit-k15049d/) performed by DC3 therapeutics https://www.dc3therapeutics.com/services. The experiment outline of PBMC isolation, monocyte purification and dendritic cell differentiation is illustrated in FIG. 1. […]
AlphaLISA assay. […] Finally, SA-donor beads are added and 30 min later plates are read using EnVision-Alpha Reader (615 nm) https://resources.perkinelmer.com/lab-solutions/resources/docs/MAN_AlphaLISA_IRAK4_AL3117.pdf?_gl=1*7jzf5d*_ga*MzQ4MTQ1NzA3LjE2NDY2NzY5MjI.*_ga_W34ZJ1Z1Q1*MTY3NzE5MjAyOS4zLjEuMTY3NzE5MjA2Mi4yNy4wLjA.&_ga=2.178521252.1409175695.1677192029-348145707.1646676922. […]

[2] = test system: C57BL/6J mice injected with AAV (LacZ transgene); assay: In vivo mouse AAV model: CD8 TEM and lacZ tetramer staining of PBMCs and splenocytes; settings: chow 30 mg/kg from 15 days prior to AAV injection; day 14 post AAV; versus AAV group; N=10
Procedure: In-vivo mice experiments. C57BL/6J mice were purchased from Jackson Laboratories. 6-8-week male mice were divided into 3 groups—PBS group, AAV group and AAV+IRAK4 group all groups with 10 mice each. Zimlovisertib IRAK4 inhibitor (Synonyms: PF-06650833) Cat. No.: HY-19836 (MedChemExpress) was mixed with mouse chow Catalog #2016, Teklad Global 16% Protein Rodent Diets https://www.inotivco.com/rodent-natural-ingredient-2016-diets at a dose of 30 mg/kg. AAV+IRAK4 group was fed the chow with Zimlovisertib IRAK4 inhibitor 15 days prior to AAV injection whereas PBS and AAV group were fed with mouse chow Catalog #2016, Teklad Global 16% Protein Rodent Diets https://www.inotivco.com/rodent-natural-ingredient-2016-diets. PBS group mice were injected intramuscularly with 100 ul PBS, AAV group was injected intramuscularly with 1e11 vg per quadricep muscle of both legs, 100 ul volume.
The same experiment design was followed with n=6 mice in each group PBS group, AAV group and AAV+IRAK4 degrader PROTAC IRAK4 degrader-1 Cat. No.: HY-129966 (MedChemExpress) that was mixed with chow at 100 mg/kg and fed to mice 15 days prior to AAV injection. […] AAV capsid used in the study had LacZ transgene. All animal experiments were conducted in accordance with the Institutional Animal Care and Use Committees at Sanofi, Framingham. Submandibular bleeds were performed weekly, and necropsy was performed three weeks post AAV injection.
PBMC isolation and surface staining. 120 ul blood was collected in K2EDTA coated tubes. The blood was mixed with DBPS at 1:1 ration and pipetted into a separate tube containing Ficoll (GE17-5442-02) to ensure no mixing of the blood and Ficoll phases. The mixture was centrifuged at 2000 RPM for 25 minutes at room temperature (9 acceleration and no braking). The buffy coat containing the peripheral blood mononuclear cells (PBMCs) was collected, transferred to a new tube, and centrifuged for five minutes at 400 RCF. PBMCs were washed three times with phosphate buffered saline (PBS) containing 1% fetal bovine serum (FBS) or fetal calf serum (FCS) and counted. The PBMC cells thus obtained were stained with different antibodies to quantify percentage of different immune cell subsets in peripheral blood.
PBMC CD8 TEM and lacZ tetramer staining. The PBMC was isolated from ˜120 μl of mouse blood, and it was transferred to a 96-well U-bottom plate. […]

CC[C@@H]1[C@H](F)C(=O)N[C@@H]1COc1nccc2cc(C(N)=O)c(OC)cc12 [zimlovisertib, 1-[[(2S,3S,4S)-3-Ethyl-4-fluoro-5-oxo-2-pyrrolidinyl]methoxy]-7-methoxy-6-isoquinolinecarboxamide]
Phosphorylation of NFkB induced by LPS [1]: blocks phosphorylation of NFkB at 400 nM and 2000 nM | CD44+CD62L+ effector memory cells in PBMCs [2]: significant reduction | LacZ tetramer positive CD8 T cells in PBMCs [2]: significant reduction
